These results are taken from PubChem BioAssay AID651853 (NMMLSC, 2012).

In the experiment the test system is AM2.2 cells FAP-GPR32, fluorogen binding, flow cytometry MCF. Description: interference with FAP fluorogen signal – human GPR32, AM2.2 cells, powder set 3, counter-screen for beta2AR agonist internalization project, dose response (AID 651853). For orientation: A counterscreen serves to expose hits that act by an unwanted route or on another target.

The structures appear in SMILES notation. pEC50: −log10 of the molar value.

Take `COc1ccc(OC)c(CCNC(=O)C2CCN(c3nnc(-n4cccc4)s3)CC2)c1`: the pEC50 (usually the negative decadic logarithm of the EC50, by convention in mol/L) is 5.85.

Consider `Clc1cccc(-c2nnc(SCc3nc4ccccc4[nH]3)n2Cc2ccco2)c1`, for which the pEC50 is 5.14.

With `CC1(C)Cc2c(c(N3CCCC3)nc3sc4c(N5CCN(CCO)CC5)ncnc4c23)CO1`, the pEC50 is 5.59.

In the case of `CSc1nc(SCCO)c2sc3nc(-c4ccco4)c4c(c3c2n1)CC(C)(C)OC4`, the negative-log EC50 (pEC50) was 5.74.

Regarding `Cn1c(N2CCN(c3ccccn3)CC2)nc2c1c(=O)n(Cc1ccc(Cl)cc1)c(=O)n2C`, the pEC50 was 8.00.

Take `CC(C)Cc1nc2sc3c(NCc4ccco4)ncnc3c2c2c1COC(C)(C)C2`: the pEC50 was 7.70.

As to `C=CCn1c(CCNC(=O)c2cccs2)nnc1SCC(=O)c1ccc(Br)cc1`, the pEC50 is 8.00.

For `Cc1ccc(Cn2ccc(NC(=O)c3cc4nc(-c5ccco5)cc(C(F)(F)F)n4n3)n2)cc1`, the pEC50 is 8.00.

For the compound `Clc1ccc(OCc2nnc(SCc3nc4ccccc4[nH]3)n2Cc2ccco2)cc1`, the negative logarithm of the EC50 (pEC50) is 8.00.

As for `Cc1ncc(CN2CCCC(C(=O)Nc3ccc(-c4cccc(F)c4)cc3)C2)s1` (stereo not given), the pEC50 was 6.06.

Consider `CC(Oc1ccc(Cl)cc1Cl)c1nc(-c2ccc(NC(=O)c3ccco3)cc2)no1` (stereo not given), for which the pEC50 was 6.64.

In the case of `CC(Sc1nc(-c2ccccc2)cc(C(F)(F)F)n1)C(=O)N1CCOCC1` (stereo not given), the pEC50 was 7.70.

Take `O=C(c1cc2c(=O)n3ccccc3nc2s1)N1CCN(Cc2ccc3c(c2)OCO3)CC1`: the pEC50 is 6.96.

Consider `Cc1ccc(NC(=O)C(c2ccc(Cl)cc2)N2CCOCC2)cc1` (stereo not given), for which the pEC50 was 6.04.

As to `Cc1ccc(OCc2cc(C(=O)N(C)Cc3cnn(-c4ccccc4C)c3)no2)cn1`, the negative logarithm of the EC50 (pEC50) was 7.22.

With `CN(Cc1ccccc1)S(=O)(=O)c1ccc(NS(=O)(=O)Cc2ccccc2)cc1`, the negative logarithm of the EC50 (pEC50) was 7.30.

Regarding `CC(=O)Nc1ccc(S(=O)(=O)N2CCC(Oc3ccc(-n4cnnn4)cc3)CC2)cc1`, the pEC50 was 7.40.

With `CC(Sc1nc(-c2ccccc2)cc(C(F)(F)F)n1)C(=O)N1CCCCC1` (stereo not given), the pEC50 is 8.00.

For the compound `CC(Oc1ccc(Cl)cc1Cl)c1nc(-c2ccc(NC(=O)c3ccccn3)cc2)no1` (stereo not given), the pEC50 is 6.92.

For the compound `Cc1ccccc1N1CCN(c2ncnc3c2cnn3Cc2ccc(Cl)cc2)CC1`, the pEC50 was 5.66.
